Source: ChEMBL document CHEMBL1201862, “PubChem BioAssay data set” (2004)
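Each compound was tested at five concentrations against cells in 96-well plates for 48 hours. GI50: concentration for 50% inhibition of growth.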 Activity calls are given as the source filed them. Rule as the data show it: active = GI50 up to about 1.1 µM and inactive = higher. Where a SMILES comes first, the peptide text is derived from it. The star is where a group is joined. Boc = CC(C)(C)OC(=O)*

Assays:
Test in all cases: NCI-60 cell line screen, 48 h
[1] = tested on: 786-0
[2] = tested on: LOX IMVI
[3] = tested on: SF-268
[4] = tested on: Hs-578T
[5] = tested on: KM12
[6] = tested on: MOLT-4
[7] = tested on: HCC 2998
[8] = tested on: SF-295
[9] = tested on: OVCAR-8
[10] = tested on: HL-60
[11] = tested on: T47D
[12] = tested on: SF-539
[13] = tested on: CCRF-CEM
[14] = tested on: Malme-3M
[15] = tested on: SN12C
[16] = tested on: DU-145
[17] = tested on: MDA-MB-435
[18] = tested on: NCI-H522
[19] = tested on: SK-MEL-2
[20] = tested on: MDA-N

Structure (SMILES) | GI50 [1] | GI50 [2] | GI50 [3] | GI50 [4] | GI50 [5] | GI50 [6] | GI50 [7] | GI50 [8] | GI50 [9] | GI50 [10] | GI50 [11] | GI50 [12] | GI50 [13] | GI50 [14] | GI50 [15] | GI50 [16] | GI50 [17] | GI50 [18] | GI50 [19] | GI50 [20]
O/N=C(\C=N\O)c1ccc2c(c1)Sc1ccccc1O2 | 17.5 µM (inactive) | 30.5 µM (inactive) | 16.8 µM (inactive) | 24.9 µM (inactive) | 33 µM (inactive) | 5.43 µM (inactive) | 23.4 µM (inactive) | 22.3 µM (inactive) | 22.8 µM (inactive) | 20.9 µM (inactive) | 24.5 µM (inactive) | 26.4 µM (inactive) | 2.39 µM (inactive) | 29.5 µM (inactive) | 17.5 µM (inactive) | 39.8 µM (inactive) | 12.1 µM (inactive) | 3.53 µM (inactive) | – | –
COC(=O)C1=C(C(=O)OC)C2OC1C1C2C2(C)C(C)=C(C)C1(C)[S+]2[O-] (configuration not stated) | 4.65 µM (inactive) | 16.6 µM (inactive) | 9.55 µM (inactive) | 20.8 µM (inactive) | 19 µM (inactive) | 2.02 µM (inactive) | 20.1 µM (inactive) | 28.4 µM (inactive) | 5.15 µM (inactive) | – | 6.71 µM (inactive) | 5.51 µM (inactive) | – | 6.98 µM (inactive) | 16.6 µM (inactive) | 6.62 µM (inactive) | 6.73 µM (inactive) | 2.14 µM (inactive) | 10.8 µM (inactive) | 11.3 µM (inactive)
NC(=O)NNC(=O)c1nc[nH]c1[N+](=O)[O-] | > 100 µM (inactive) | > 100 µM (inactive) | > 100 µM (inactive) | > 100 µM (inactive) | – | > 100 µM (inactive) | > 100 µM (inactive) | – | > 100 µM (inactive) | – | > 100 µM (inactive) | > 100 µM (inactive) | > 100 µM (inactive) | > 100 µM (inactive) | > 100 µM (inactive) | > 100 µM (inactive) | > 100 µM (inactive) | > 100 µM (inactive) | > 100 µM (inactive) | > 100 µM (inactive)
O=C1C(Cl)=C(NCCCN2CCOCC2)C(=O)c2c(O)ccc(O)c21 | 2.29 µM (inactive) | 1.8 µM (inactive) | 2.84 µM (inactive) | 1.27 µM (inactive) | 1.85 µM (inactive) | 1 µM (active) | 2.2 µM (inactive) | 2.53 µM (inactive) | 3.99 µM (inactive) | – | 4.89 µM (inactive) | 1.68 µM (inactive) | 1 µM (active) | 1.91 µM (inactive) | 2.01 µM (inactive) | 1.6 µM (inactive) | 1.85 µM (inactive) | – | 0.228 µM (active) | 1.72 µM (inactive)
CCOC(=O)C1(C(=O)OCC)CCCN1C(=O)[C@H](CNC(=O)OC(C)(C)C)NC(=O)OCc1ccccc1 | > 100 µM (inactive) | > 100 µM (inactive) | > 100 µM (inactive) | > 100 µM (inactive) | > 100 µM (inactive) | 27.8 µM (inactive) | 67.6 µM (inactive) | > 100 µM (inactive) | – | – | > 100 µM (inactive) | > 100 µM (inactive) | 17.4 µM (inactive) | – | > 100 µM (inactive) | > 100 µM (inactive) | > 100 µM (inactive) | – | > 100 µM (inactive) | > 100 µM (inactive)
COCCN(CCOC)C(=O)COc1c2cc(C(C)(C)C)cc1Cc1cc(C(C)(C)C)cc(c1OCC(=O)N(CCOC)CCOC)Cc1cc(C(C)(C)C)cc(c1OCC(=O)N(CCOC)CCOC)Cc1cc(C(C)(C)C)cc(c1OCC(=O)N(CCOC)CCOC)Cc1cc(C(C)(C)C)cc(c1OCC(=O)N(CCOC)CCOC)C2 | 2.15 µM (inactive) | 1.73 µM (inactive) | 1.93 µM (inactive) | – | 0.518 µM (active) | 1.74 µM (inactive) | 2.25 µM (inactive) | 1.54 µM (inactive) | 1.39 µM (inactive) | 1.25 µM (inactive) | 1.27 µM (inactive) | 2.34 µM (inactive) | 0.705 µM (active) | 1.85 µM (inactive) | 0.851 µM (active) | 2.81 µM (inactive) | 2.09 µM (inactive) | 0.655 µM (active) | 1.02 µM (active) | 2.1 µM (inactive)
O=c1oc(-c2ccc(O)cc2)cc2cc(O)ccc12 | 39.4 µM (inactive) | – | 26.5 µM (inactive) | 23.6 µM (inactive) | 24.8 µM (inactive) | 18.5 µM (inactive) | 23.1 µM (inactive) | 39.4 µM (inactive) | 41.9 µM (inactive) | 18.5 µM (inactive) | 19.9 µM (inactive) | 32.2 µM (inactive) | 20.4 µM (inactive) | 30.1 µM (inactive) | 17.2 µM (inactive) | 39 µM (inactive) | 27.4 µM (inactive) | 25.8 µM (inactive) | 33.3 µM (inactive) | –
Cn1ccc(C(=O)NCCN(CCNC(=O)c2ccn(C)c(=O)c2O)CCNC(=O)c2cccc(=O)n2O)c(O)c1=O | > 100 µM (inactive) | > 100 µM (inactive) | > 100 µM (inactive) | > 100 µM (inactive) | 56.4 µM (inactive) | – | > 100 µM (inactive) | > 100 µM (inactive) | > 100 µM (inactive) | > 100 µM (inactive) | > 100 µM (inactive) | > 100 µM (inactive) | > 100 µM (inactive) | > 100 µM (inactive) | > 100 µM (inactive) | > 100 µM (inactive) | > 100 µM (inactive) | > 100 µM (inactive) | > 100 µM (inactive) | –
CCOC(=O)C(CC(C)C)NC(=O)CSc1nnc(COc2ccc(Cl)cc2)n1-c1ccccc1 (configuration not stated) | 15.3 µM (inactive) | 14.9 µM (inactive) | 18.2 µM (inactive) | 22.3 µM (inactive) | 18 µM (inactive) | 4.51 µM (inactive) | 10.4 µM (inactive) | – | – | 21 µM (inactive) | 14.4 µM (inactive) | 21.8 µM (inactive) | 5.08 µM (inactive) | 19.3 µM (inactive) | 15.6 µM (inactive) | 17.1 µM (inactive) | 16.9 µM (inactive) | – | 16.3 µM (inactive) | –
O=[N+]([O-])c1ccccc1S(=O)(=O)N1CCCc2cc(Cl)ccc21 | > 85.1 µM (inactive) | 24.3 µM (inactive) | > 68.1 µM (inactive) | 50.8 µM (inactive) | 18.5 µM (inactive) | 6.35 µM (inactive) | 38 µM (inactive) | 23.5 µM (inactive) | 88.9 µM (inactive) | 6.3 µM (inactive) | 15.3 µM (inactive) | 32.4 µM (inactive) | 8.91 µM (inactive) | > 100 µM (inactive) | 82.4 µM (inactive) | > 90.6 µM (inactive) | 4.46 µM (inactive) | – | > 52.6 µM (inactive) | 4.46 µM (inactive)
COc1cccc(C2c3cc4c(cc3OC(N3CCCC3)C2C)OCO4)c1OC (configuration not stated) | 3.89 µM (inactive) | 1.96 µM (inactive) | 2.89 µM (inactive) | 1.59 µM (inactive) | 3.08 µM (inactive) | 2.77 µM (inactive) | – | 1.92 µM (inactive) | 2.96 µM (inactive) | – | 2.47 µM (inactive) | 3.33 µM (inactive) | 2.77 µM (inactive) | – | 3.02 µM (inactive) | 2.01 µM (inactive) | 4.06 µM (inactive) | 3.69 µM (inactive) | 3.89 µM (inactive) | 4.76 µM (inactive)
O=C(O)C1CCCN(CCc2c[nH]c3ccccc23)C1 (configuration not stated) | > 100 µM (inactive) | > 100 µM (inactive) | > 100 µM (inactive) | – | > 100 µM (inactive) | > 100 µM (inactive) | > 100 µM (inactive) | > 100 µM (inactive) | > 100 µM (inactive) | > 100 µM (inactive) | > 100 µM (inactive) | > 100 µM (inactive) | > 100 µM (inactive) | > 100 µM (inactive) | > 100 µM (inactive) | > 100 µM (inactive) | > 100 µM (inactive) | > 100 µM (inactive) | > 100 µM (inactive) | > 100 µM (inactive)
Cc1c(O)c(OC2OC(CO)C(O)C(O)C2O)cc2c1CC[C@@H]1C2(C)C(=O)C[C@]2(C)[C@@H]([C@@](C)(O)C(O)/C=C/C(C)(C)O)[C@H](O)C[C@@]12C (some centres not stated) | > 100 µM (inactive) | > 100 µM (inactive) | > 100 µM (inactive) | – | > 100 µM (inactive) | > 100 µM (inactive) | > 100 µM (inactive) | > 100 µM (inactive) | > 100 µM (inactive) | > 100 µM (inactive) | > 100 µM (inactive) | > 100 µM (inactive) | > 100 µM (inactive) | > 100 µM (inactive) | > 100 µM (inactive) | > 100 µM (inactive) | > 100 µM (inactive) | > 100 µM (inactive) | > 100 µM (inactive) | > 100 µM (inactive)
Nc1nc(-c2ccccc2)nc2c1[n+]([O-])c1ccccc1[n+]2[O-] | > 100 µM (inactive) | > 100 µM (inactive) | > 100 µM (inactive) | > 100 µM (inactive) | > 100 µM (inactive) | – | > 100 µM (inactive) | > 100 µM (inactive) | > 100 µM (inactive) | > 100 µM (inactive) | > 100 µM (inactive) | > 100 µM (inactive) | > 100 µM (inactive) | > 100 µM (inactive) | > 100 µM (inactive) | > 100 µM (inactive) | > 100 µM (inactive) | > 100 µM (inactive) | > 100 µM (inactive) | –
CC(NC(=O)C(NC(=O)OC(C)(C)C)C(C)C)C(=O)NCC(=O)O (stereo not drawn) (Boc-Val-Ala-Gly-OH; configuration not given here) | > 100 µM (inactive) | – | > 100 µM (inactive) | > 100 µM (inactive) | > 100 µM (inactive) | > 100 µM (inactive) | > 100 µM (inactive) | > 100 µM (inactive) | > 100 µM (inactive) | – | > 100 µM (inactive) | > 100 µM (inactive) | – | > 100 µM (inactive) | > 100 µM (inactive) | > 100 µM (inactive) | > 100 µM (inactive) | > 100 µM (inactive) | > 100 µM (inactive) | > 100 µM (inactive)
